Where two headings read alike, the source gives them in different places.
Experiments:
IGF-1R = biological target: T1, IGF-1R (Homo sapiens, UniProt P08069); assay: IGF-1R inhibitory activity (kinase reaction, time-resolved fluoroimmunoassay); format: biochemical; conditions: test compound 10 μmol/L
T1 construct: purchased Upstate Co. 14-465
How it was run: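 Compounds were tested at a single 10 μmol/L concentration. Each was incubated with recombinant IGF-1R (200 μg/L), 10 mmol/L ATP, MgCl2/MnCl2 and Na3VO4 (pH 7.5) on immobilized poly(Glu-Tyr) peptide for 30 min at 24° C. Eu-anti-phosphotyrosine time-resolved fluorescence (340/615 nm) gave relative activity against no-compound and no-enzyme wells, reported as % inhibition.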

Colo205 = assay: Cytostatic activity on human colon cancer cell line Colo205 (WST-1); format: cell-based; conditions: Homo sapiens, COLO 205, 72 h, 10 μmol/L, read-out: cytostatic rate (%) Colo205 (10 μmol/L)
Procedure: (§1) The cytostatic rates of the test compound on the human pancreatic cancer cell line AsPC-1 and the human colon cancer cell line Colo205 were determined in the following manner.
(§2) For culturing AsPC-1, RPMI 1640 medium containing 20% fetal bovine serum, 1 mmol/L sodium pyruvate, 10 mmol/L HEPES, 4.5 g/L glucose and penicillin/streptomycin (1:1). The Colo205 cell was cultured using RPMI 1640 medium containing 10% fetal bovine serum, 1 mmol/L sodium pyruvate, 10 mmol/L HEPES, 4.5 g/L glucose and penicillin/streptomycin (1:1) was used. Each 80 μL of the AsPC-1 cell having a concentration of 5×10^4 cells/mL (or the Colo205 having a concentration of 5×10^4 cells/mL) was inoculated to wells of a TC MICROWELL 96F plate (Nalge Nunc International, Catalog No. 167008) and was cultured in a 5% carbon dioxide gas incubator at 37° C. for 24 hours. Each 20 μL of a solution of the test compound in DMSO which was prepared to make the final concentration to 1 μmol/L or 10 μmol/L, was added to each well. Each 20 μL of DMSO was added to the control well and the blank well to a final concentration of 0.1%. After adding the test compound, the cell was incubated in a 5% carbon dioxide gas incubator at 37° C. for 72 hours except for the blank well. After adding 20 μL of WST-1 reagent which was diluted to 50% by RPMI medium to each well, the cells were further incubated at 37° C. for 2 hours. Then, the absorbances at 450 nm (reference wavelength: 690 nm) were determined with a microplate spectrophotometer SPECTRA max 340PC. The cytostatic rate (%) was then determined in the similar manner to the above multiple myeloma cell lines.

AsPC-1 = assay: Cytostatic activity on human pancreatic cancer cell line AsPC-1 (WST-1); format: cell-based; conditions: Homo sapiens, ASPC1, 72 h, 10 μmol/L, read-out: cytostatic rate (%) AsPC-1 (10 μmol/L)
Procedure: as §1, §2

KMS-11 = assay: Cytostatic activity on human multiple myeloma cell line KMS-11 (WST-1); format: cell-based; conditions: for inhibition at 10 µM / inhibition at 1 µM: Homo sapiens, KMS-11, 72 h; for inhibition at 10 µM: 10 μmol/L, read-out: cytostatic rate (%) KMS-11 (10 μmol/L); for inhibition at 1 µM: read-out: cytostatic rate (%) KMS-11 (1 μmol/L)
How it was run: (§3)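 Cells pre-cultured 24 h at 37 °C, 5% CO2, then exposed 72 h to compound at final 1 or 10 μmol/L (0.1% DMSO). WST-1 added for 2 h, absorbance at 450 nm (ref 690 nm). Cytostatic rate = 100 minus relative growth, with DMSO control as 100% and blank as 0%.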

NCI-H929 = assay: Cytostatic activity on human multiple myeloma cell line NCI-H929 (WST-1); format: cell-based; conditions: for inhibition at 10 µM / inhibition at 1 µM: Homo sapiens, NCI-H929, 72 h; for inhibition at 10 µM: 10 μmol/L, read-out: cytostatic rate (%) H929 (10 μmol/L); for inhibition at 1 µM: read-out: cytostatic rate (%) H929 (1 μmol/L)
How it was run: as §3

[1] = IGF-1R active recombinant enzyme
[2] = KMS-11 cells, test compound 1 μmol/L, WST-1
[3] = NCI-H929 cells, test compound 1 μmol/L, WST-1

T1 sequence (P08069 959-1367 limits assumed): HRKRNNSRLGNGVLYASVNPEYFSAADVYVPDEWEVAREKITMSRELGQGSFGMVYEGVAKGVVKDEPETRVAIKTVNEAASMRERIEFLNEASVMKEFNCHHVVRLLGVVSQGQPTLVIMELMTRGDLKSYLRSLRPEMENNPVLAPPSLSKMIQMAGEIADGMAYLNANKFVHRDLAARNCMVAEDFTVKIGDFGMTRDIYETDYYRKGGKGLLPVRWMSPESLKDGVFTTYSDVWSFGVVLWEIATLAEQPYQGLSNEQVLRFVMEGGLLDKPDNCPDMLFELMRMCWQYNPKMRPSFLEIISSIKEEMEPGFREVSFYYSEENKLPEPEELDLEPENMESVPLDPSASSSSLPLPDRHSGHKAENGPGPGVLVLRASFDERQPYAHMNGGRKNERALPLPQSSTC

Row | inhibition at 10 µM (IGF-1R; [1]) [%] | SMILES | inhibition at 10 µM (Colo205) [%] | inhibition at 10 µM (AsPC-1) [%] | inhibition at 10 µM (KMS-11; 72 hours) [%] | inhibition at 10 µM (NCI-H929; 72 hours) [%] | further results
1 | 97.9 | Cn1cccc1C(=O)Nc1ccccc1/C=C/c1n[nH]c2ccccc12 [Compound 29, (E)-N-{2-[2-(1H-indazol-3-yl)vinyl]phenyl}-1-methyl-1H-pyrrole-2-carboxamide] | 114 | 66.1 | 112 | 117 | –
2 | 98.6 | Cc1ccsc1C(=O)Nc1ccccc1/C=C/c1n[nH]c2ccccc12 [Compound 41, (E)-N-{2-[2-(1H-indazol-3-yl)vinyl]phenyl}-3-methylthiophene-2-carboxamide] | 115 | 85.5 | 109 | 121 | –
3 | 97.8 | O=C(Nc1ccccc1/C=C/c1n[nH]c2ccccc12)c1cc2ccccc2s1 [Compound 46, (E)-N-{2-[2-(1H-indazol-3-yl)vinyl]phenyl}benzo[b]thiophene-2-carboxamide] | 112 | 120 | 115 | 118 | –
4 | – | O=C(Nc1ccccc1/C=C/c1n[nH]c2ccccc12)c1ccccc1 [Compound 85, (E)-N-{2-[2-(1H-indazol-3-yl)vinyl]phenyl}benzamide] | 116 | 125 | 124 | 134 | inhibition at 10 µM (IGF-1R): 99.5%
5 | – | Cc1ccsc1C(=O)Nc1cc(C(=O)N2CCOCC2)ccc1/C=C/c1n[nH]c2ccccc12 [Compound 100, (E)-N-{2-[2-(1H-indazol-3-yl)vinyl]-5-(morpholin-4-ylcarbonyl)phenyl}-3-methylthiophene-2-carboxamide] | 121 | 108 | 115 | 122 | inhibition at 10 µM (IGF-1R): 98.6%
6 | – | Cc1ccsc1C(=O)Nc1cc(CO)ccc1/C=C/c1n[nH]c2ccccc12 [Compound 108, (E)-N-{5-hydroxymethyl-2-[2-(1H-indazol-3-yl)vinyl]phenyl}-3-methylthiophene-2-carboxamide] | 121 | 87.9 | 110 | 123 | inhibition at 10 µM (IGF-1R): 95%
7 | – | COc1cccc(/C=C/c2n[nH]c3ccccc23)c1NC(=O)c1cccn1C [Compound 109, (E)-N-{2-[2-(1H-indazol-3-yl)vinyl]-6-methoxyphenyl}-1-methyl-1H-pyrrole-2-carboxamide] | 123 | 114 | 117 | 116 | inhibition at 10 µM (IGF-1R): 103%
8 | 103 | COc1c(OCCCN2CCC[C@H]2CO)ccc(/C=C/c2n[nH]c3ccccc23)c1NC(=O)c1sccc1C [Compound 340, (E)-(s)-N-{3-[3-(2-hydroxymethylpyrrolidin-1-yl)propoxy]-6-[2-(1H-indazol-3-yl)vinyl]-2-methoxyphenyl}-3-methylthiophene-2-carboxamide] | – | – | – | – | inhibition at 1 µM (KMS-11; [2]): 118%; inhibition at 1 µM (NCI-H929; [3]): 121%
9 | 105 | COc1c(OCCCN2CCNC(=O)C2)ccc(/C=C/c2n[nH]c3ccccc23)c1NC(=O)c1sccc1C [Compound 341, (E)-N-{6-[2-(1H-indazol-3-yl)vinyl]-2-methoxy-3-[3-(3-oxopiperazin-1-yl)propoxy]phenyl}-3-methylthiophene-2-carboxamide] | – | – | – | – | inhibition at 1 µM (KMS-11; [2]): 124%; inhibition at 1 µM (NCI-H929; [3]): 120%
10 | – | COc1c(OCCCN2CCOCC2)ccc(/C=C/c2n[nH]c3ccccc23)c1NC(=O)c1sccc1C [Compound 342, (E)-N-{6-[2-(1H-indazol-3-yl)vinyl]-2-methoxy-3-(3-morpholin-4-yl)propoxyphenyl}-3-methylthiophene-2-carboxamide] | – | – | – | – | inhibitory activity (%) at 10 μmol/L (IGF-1R; [1]): 101.6%; cytostatic rate (%) KMS-11 (1 μmol/L) (KMS-11; [2]): 122.6%; cytostatic rate (%) H929 (1 μmol/L) (NCI-H929; [3]): 118.7%
11 | – | COc1c(OC(=O)CC(=O)N2CC[C@@H](O)C2)ccc(/C=C/c2n[nH]c3ccccc23)c1NC(=O)c1sccc1C [Compound 343, (E)-N—(R)-{6-[2-(1H-indazol-3-yl)vinyl]-2-methoxy-3-[(3-hydroxypyrrolidine-1-ylcarbonyl)acetyloxy]phenyl}-3-methylthiophene-2-carboxamide] | – | – | – | – | inhibitory activity (%) at 10 μmol/L (IGF-1R; [1]): 98.4%; cytostatic rate (%) KMS-11 (1 μmol/L) (KMS-11; [2]): 79%; cytostatic rate (%) H929 (1 μmol/L) (NCI-H929; [3]): 127.5%
12 | 97.4 | COc1c(OCCCN2CCC(O)CC2)ccc(/C=C/c2n[nH]c3ccccc23)c1NC(=O)c1sccc1C [Compound 344, (E)-N-{3-[3-(4-hydroxypiperidin-1-yl)propoxy]-6-[2-(1H-indazol-3-yl)vinyl]-2-methoxyphenyl}-3-methylthiophene-2-carboxamide] | – | – | – | – | inhibition at 1 µM (KMS-11; [2]): 117%; inhibition at 1 µM (NCI-H929; [3]): 133%
13 | 114 | COc1c(OCCCN2CC[C@@H](N)C2)ccc(/C=C/c2n[nH]c3ccccc23)c1NC(=O)c1sccc1C [Compound 346, (R)-(E)-N-{3-[3-(3-aminopyrrolidin-1-yl)propoxy]-6-[2-(1H-indazol-3-yl)vinyl]-2-methoxyphenyl}-3-methylthiophene-2-carboxamide] | – | – | – | – | inhibition at 1 µM (KMS-11; 1 μmol/L, 72 hours): 97.2%; inhibition at 1 µM (NCI-H929; 1 μmol/L, 72 hours): 114%
14 | 106 | COc1c(OCCCN(C)CCO)ccc(/C=C/c2n[nH]c3ccccc23)c1NC(=O)c1sccc1C [Compound 347, (E)-N-{3-{3-[(2-hydroxyethyl)methylamino]propoxy}-6-[2-(1H-indazol-3-yl)vinyl]-2-methoxyphenyl}-3-methylthiophene-2-carboxamide] | – | – | – | – | inhibition at 1 µM (KMS-11; 1 μmol/L, 72 hours): 116%; inhibition at 1 µM (NCI-H929; 1 μmol/L, 72 hours): 116%
15 | – | COc1c(OCCN2CCC(O)CC2)ccc(/C=C/c2n[nH]c3ccccc23)c1NC(=O)c1sccc1C [Compound 349, (E)-{3-[2-(4-hydroxypiperidin-1-yl)ethoxy]-6-[2-(1H-indazol-3-yl)vinyl]-2-methoxyphenyl}-3-methylthiophene-2-carboxamide] | – | – | – | – | inhibitory activity (%) at 10 μmol/L (IGF-1R; [1]): 101.9%; cytostatic rate (%) KMS-11 (1 μmol/L) (KMS-11; 1 μmol/L, 72 hours): 117.2%; cytostatic rate (%) H929 (1 μmol/L) (NCI-H929; 1 μmol/L, 72 hours): 116.3%
16 | 111 | COc1c(OCCCN2CCC(CO)CC2)ccc(/C=C/c2n[nH]c3ccccc23)c1NC(=O)c1sccc1C [Compound 350, (E)-N-(3-{3-[4-(hydroxymethyl)piperidin-1-yl]propoxy}-6-[2-(1H-indazol-3-yl)vinyl]-2-methoxyphenyl)-3-methylthiophene-2-carboxamide] | – | – | – | – | inhibition at 1 µM (KMS-11; 1 μmol/L, 72 hours): 117%; inhibition at 1 µM (NCI-H929; 1 μmol/L, 72 hours): 117%
17 | 103 | Cn1ccnc1C(=O)Nc1ccccc1/C=C/c1n[nH]c2ccccc12 [Compound 352, (E)-N-{2-[2-(1H-indazol-3-yl)vinyl]phenyl}-1-methyl-1H-imidazole-2-carboxamide] | – | – | – | – | inhibition at 1 µM (KMS-11; 1 μmol/L, 72 hours): 84.8%; inhibition at 1 µM (NCI-H929; 1 μmol/L, 72 hours): 108%
18 | 102 | Cc1c(Br)csc1C(=O)Nc1ccccc1/C=C/c1n[nH]c2ccccc12 [Compound 353, (E)-N-{2-[2-(1H-indazol-3-yl)vinyl]phenyl}-4-bromo-3-methylthiophene-2-carboxamide] | – | – | – | – | inhibition at 1 µM (KMS-11; 1 μmol/L, 72 hours): 77.4%; inhibition at 1 µM (NCI-H929; 1 μmol/L, 72 hours): 104%

Reference: US7605272B2, “IGF-1R inhibitor” (Kyowa Hakko Kirin Co., Ltd., priority 2005, dated 2009)
